# Measured values taken from patent publication EP0642504B1 (priority 1991, dated 1993).
# Marks after values point to notes of the source that are not given here.
# What was measured:
# [1] = Solubility in the oocyte test medium; format: physicochemical
# Experimental: Several NMDA receptor blockers were tested. These compounds have very low solubility and have to be dissolved in 100% dimethyl sulfoxide (DMSO) and diluted for use in ND 96 that contained 1% DMSO. Therefore, the effect of 1% DMSO on the response to 10-^4 M NMDA and 5x10-^6 M glycine was examined. DMSO had no effect on NMDA response in three different cells.
# The effect of HU-245 was reversible upon return to ND 96 solution.
# mouse [2] = test: Mouse hot plate test (55°C) for antinociception; format: in vivo
# Experimental: In the hot plate test for analgesia an aluminum surface was maintained at 55 ± 1°C by circulating water through passages in the metal. A clear plastic cylinder 18 cm in diameter and 26 cm high was placed on the surface to prevent escape. The end point was taken when the mouse either performed a hind paw lick or jumped off the surface; in no case were the animals kept for more than 30 secs on the plate. Mice were never used more than one time; control values were always measured at 11 a.m. and test values at 2 p.m. The drugs were administered orally 90 min before the hot plate test. The percent change in response time (latency) was calculated by comparing the mean of the control values with the mean of the test values and statistical signficance determined by a paired t-test analysis using software (Statview, 512) from Brainpower, Inc., Calabasas, Ca.
# peritoneal leukocytes = test: Leukocyte adhesion assay, peritoneal cells collected after oral dosing; format: in vivo, CD-1 mice; conditions: cells collected 90 min after administration; for number of adhering cells x 10^-6 ± S.D.: 18-20 hours incubation
# Experimental: Leukocytes are thought to be major contributors to the inflammatory response and their ability in this regard is reflected by their adhesiveness to a variety of substrates [Audette, C.A., et al., Life Sci., 47, 753 (1990)].
# The details of the leukocytes adhesion assay have been previously reported [Audette et al., ibid.]. In brief, peritoneal cells from femals CD-1 mice (20-25 g) were collected at 90 min following oral administration of the drug or vehicle (50 µl peanut oil). Cells from each treatment group (N=3) were pooled and equal numbers aliquoted into six culture dish wells (1.9 cm^2 area). After incubation for 18-20 hours, non-adhering cells were removed and the remaining cell monolayer quantitated by DNA measurement.
# NMDA receptor = test: NMDA-blocking response in Xenopus oocytes injected with rat brain RNA (two-electrode voltage clamp); format: cell-based
# Text: The oocyte is the most widely used system for studying the molecular, biophysical and pharmacological properties of expressed voltage- or transmitter-operated ion channels. This giant cell offers several advantages for this type of studies. It can be readily used for two-electrode voltage clamp studies, translates injected mRNA from different sources and functionally expresses the translated proteins, and it is also readily amenable for intracellular microinjections. Importantly, the recordings of transmitter- or voltage-incuded currents in a single oocyte are extremely stable and can be done, without rundown, for 2-3 hours; this allows the performance of a full dose-response relation in single oocytes.
# Neuronal receptors for excitatory amino acid (EAA) are becoming increasingly important for the understanding of normal and pathological brain function. Quantitative pharmacological studies of EAA receptor/ion channel complex are difficult to study in neurons. Therefore, Xenopus oocyte injected with brain mRNA is now the preparation of choice.
# The response to N-methyl-D-aspartate (NMDA) in oocytes injected with rat brain mRNA was characterized and the effects of HU-245 were studied.
# Female Xenopus were anesthetized by immersion in water containing 0.15% tricaine methanesulfonate and a small incision was made in the lower adbomen. Ovary fragments were removed into ND-96. […]
# intraocular pressure = test: Reduction of intraocular pressure (anti-glaucoma activity); format: in vivo, rabbits; conditions: 50 µl drop of a 1% emulsion into the rabbit eye
# Experimental: Reduction of intraocular pressure in rabbits was determined by the addition of a 50 µl drop of a 1% emulsion of the cannabinoid into the rabbit eye. This test is a measure of anti-glaucomatic activity.
# mouse [3] = test: Ring test for cataleptic effects; format: in vivo; conditions: 5-min test period, vehicle 7.7 ± 4.4
# Experimental: The lack of CNS activity for the compounds described herein may be seen from the data shown in Table V. This was measured by the so-called "ring test" [Pertwee, R.G., et al., J. Pharmacol., 46, 753 (1972)] in which the cataleptic effects of cannabinoids can be quantitated. The compounds produced little or no response when compared with the parent drug.
# The cataleptic response was measured using the ring test. Mice were placed on a horizontal wire ring 5.5 cm in diameter, which was attached to a 16 cm vertical rod. The hind paws and fore paws were placed at opposite sides of the ring. It is important that the ambient temperature is maintained at 30°C and that the environment be free of auditory stimuli and bright lights. The criteria for immobility are detailed by Pertwee. The response is calculated as the fraction of time the mouse is immobile over a 5-min test period. Measurements were always done between 2 and 4 p.m. and the animals were used only once.
smiles,measurement,setting,value
"CCCCCCC(C)(C)c1cc(OC(C)=O)c2c(c1)OC(C)(C)[C@H]1CC=C(C(=O)O)C[C@H]21 [HU-245, (3S,4S)-THC-DMH-7-oic acid, acetate]",solubility compared with prior art compounds,[1],higher than that of prior art compounds
same,solubility,"[1]; nd 96 with 1% dmso, organic solvent or mixture, ND 96 containing 1% DMSO, read-out: solubility (soluble at a concentration of up to)",≤ 0.1 µM
same,percent change in latency,mouse [2]; dose 0.025 mg/kg orally 90 min before the hot plate test,10.7(5) percent
same,percent change in latency,mouse [2]; dose 0.050 mg/kg orally 90 min before the hot plate test,66.2(5)* percent
same,percent change in latency,mouse [2]; dose 0.10 mg/kg orally 90 min before the hot plate test,62.2(5)* percent
same,percent change in latency,mouse [2]; dose 0.25 mg/kg orally 90 min before the hot plate test,68.1(10)* percent
same,percent change in latency,mouse [2]; dose 0.50 mg/kg orally 90 min before the hot plate test,49.9(5)* percent
same,percent change in latency,mouse [2]; dose 1.0 mg/kg orally 90 min before the hot plate test,12.5(5) percent
same,"adhering cells, percent of control",peritoneal leukocytes; dose 0.05 mg/kg oral,105% of control
same,number of adhering cells x 10^-6 ± S.D.,peritoneal leukocytes; dose 0.05 mg/kg oral,1.32±0.04 x 10^-6
same,"adhering cells, percent of control",peritoneal leukocytes; dose 0.10 mg/kg oral,52% of control
same,number of adhering cells x 10^-6 ± S.D.,peritoneal leukocytes; dose 0.10 mg/kg oral,0.66±0.05 x 10^-6
same,"adhering cells, percent of control",peritoneal leukocytes; dose 0.50 mg/kg oral,67% of control
same,number of adhering cells x 10^-6 ± S.D.,peritoneal leukocytes; dose 0.50 mg/kg oral,0.85±0.08 x 10^-6
same,"adhering cells, percent of control",peritoneal leukocytes; dose 1.00 mg/kg oral,24% of control
same,number of adhering cells x 10^-6 ± S.D.,peritoneal leukocytes; dose 1.00 mg/kg oral,0.30±0.04 x 10^-6
same,response to NMDA,"NMDA receptor; 10-^6M compound, 10-^4 M NMDA and 5x10-^6 M glycine, membrane potential -60mV, 1 µM",55 % of control
same,reversibility of the effect on the NMDA response,NMDA receptor; upon return to ND 96 solution,reversible
same,Reduction of intraocular pressure,intraocular pressure,Significant reduction
same,Response ± SD (means of the fraction of time the mice remained immobile),mouse [3]; dose 0.5 mg/kg,6.8 ± 2.4
same,Response ± SD (means of the fraction of time the mice remained immobile),mouse [3]; dose 1.0 mg/kg,12.0 ± 6.0
